Experimental findings from ChEMBL document CHEMBL4627346, “Ultrasound assisted rapid synthesis of mefenamic acid based indole derivatives under ligand free Cu-catalysis: Their pharmacological evaluation” (Bioorg Med Chem Lett, 2020) are described below.

The target in data set [1] is T1, 3',5'-cyclic-AMP phosphodiesterase 4B (Homo sapiens, UniProt Q07343). Kind of data set: Inhibition of recombinant human PDE4B expressed in baculovirus infected Sf9 cells at 10 uM using [3H] cAMP as substrate after 30 min by scintillation proximity assay relative to control.
Another data set has as its system CAL-27. Description: Antiproliferative activity against human CAL27 cells assessed as growth inhibition at 10 uM incubated for 72 hrs by sulforhodamine B assay. Format: functional. As to conditions: CAL-27, 72 h, read-out: GI.
In data set [2] the target is T2, 3',5'-cyclic-AMP phosphodiesterase 4D (Homo sapiens, UniProt Q08499). Description: Inhibition of PDE4D2 (unknown origin) at 30 uM relative to control.
In data set [3] the target is T1, 3',5'-cyclic-AMP phosphodiesterase 4B. Kind of data set: Inhibition of recombinant human PDE4B expressed in baculovirus infected Sf9 cells using [3H] cAMP as substrate after 30 min by scintillation proximity assay. (In general: SPA uses beads or plates that emit light when radiolabelled molecules are held near them.)
For a further data set, the species on record is Homo sapiens. Kind of data set: Selectivity ratio of inhibition of PDE4D2 (unknown origin) to inhibition of recombinant human PDE4B expressed in baculovirus infected Sf9 cells using [3H] cAMP as substrate after 30 min.
The target of the next data set is Phosphodiesterase 4 (Homo sapiens, UniProt P27815+Q08499+Q07343+Q08493). Description: Inhibition of PDE4 (unknown origin) assessed as inhibition of TNF-alpha release. It is filed as protein assay.
Data set [4] can be described thus: Metabolic stability in rat liver microsomes assessed as parent compound remaining at 5 uM after 60 mins. As to conditions: read-out: Stability. Format: ADME, Microsome. (Microsomes from liver hold many membrane-bound enzymes, among them those of drug oxidation.)
The nature of data set [5]: Half life in rat liver microsomes at 5 uM incubated for 60 mins. Format: ADME, Microsome.
A short description of data set [6]: Intrinsic clearance in rat liver microsomes at 5 uM after 60 mins. Format: ADME, Microsome. To be noted: read-out: CLH.
Data set [7] concerns the target T2, 3',5'-cyclic-AMP phosphodiesterase 4D. Kind of data set: Inhibition of PDE4D2 (unknown origin) at 10 uM relative to control.
For data set [8] the target is unchanged. Kind of data set: Inhibition of PDE4D2 (unknown origin) at 10 nM relative to control.
Data set [9] deals with T1, 3',5'-cyclic-AMP phosphodiesterase 4B. As to conditions: Sf9, 10 nM.
Description: Inhibition of recombinant human PDE4B expressed in baculovirus infected Sf9 cells at 10 nM using [3H] cAMP as substrate after 30 min by scintillation proximity assay relative to control

T1 sequence (Q07343 whole entry): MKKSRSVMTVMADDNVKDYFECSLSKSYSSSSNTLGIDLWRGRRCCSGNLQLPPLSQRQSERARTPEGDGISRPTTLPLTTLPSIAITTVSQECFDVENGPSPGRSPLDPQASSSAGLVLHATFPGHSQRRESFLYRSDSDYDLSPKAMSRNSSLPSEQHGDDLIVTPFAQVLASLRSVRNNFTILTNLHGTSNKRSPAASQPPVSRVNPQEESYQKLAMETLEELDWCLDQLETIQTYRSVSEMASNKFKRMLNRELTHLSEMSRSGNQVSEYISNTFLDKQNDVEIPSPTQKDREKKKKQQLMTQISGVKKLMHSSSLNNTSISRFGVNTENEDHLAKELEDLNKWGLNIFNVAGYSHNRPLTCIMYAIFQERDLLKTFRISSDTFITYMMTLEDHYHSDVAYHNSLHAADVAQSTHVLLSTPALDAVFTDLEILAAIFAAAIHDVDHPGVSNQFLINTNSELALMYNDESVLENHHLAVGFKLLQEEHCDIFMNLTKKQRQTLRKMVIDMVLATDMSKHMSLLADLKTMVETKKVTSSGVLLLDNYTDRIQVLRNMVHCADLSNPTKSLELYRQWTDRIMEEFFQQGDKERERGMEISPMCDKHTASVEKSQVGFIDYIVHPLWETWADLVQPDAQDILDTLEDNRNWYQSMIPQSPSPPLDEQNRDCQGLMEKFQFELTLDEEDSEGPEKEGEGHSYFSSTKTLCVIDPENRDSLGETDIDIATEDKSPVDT
T2 sequence (Q08499 whole entry): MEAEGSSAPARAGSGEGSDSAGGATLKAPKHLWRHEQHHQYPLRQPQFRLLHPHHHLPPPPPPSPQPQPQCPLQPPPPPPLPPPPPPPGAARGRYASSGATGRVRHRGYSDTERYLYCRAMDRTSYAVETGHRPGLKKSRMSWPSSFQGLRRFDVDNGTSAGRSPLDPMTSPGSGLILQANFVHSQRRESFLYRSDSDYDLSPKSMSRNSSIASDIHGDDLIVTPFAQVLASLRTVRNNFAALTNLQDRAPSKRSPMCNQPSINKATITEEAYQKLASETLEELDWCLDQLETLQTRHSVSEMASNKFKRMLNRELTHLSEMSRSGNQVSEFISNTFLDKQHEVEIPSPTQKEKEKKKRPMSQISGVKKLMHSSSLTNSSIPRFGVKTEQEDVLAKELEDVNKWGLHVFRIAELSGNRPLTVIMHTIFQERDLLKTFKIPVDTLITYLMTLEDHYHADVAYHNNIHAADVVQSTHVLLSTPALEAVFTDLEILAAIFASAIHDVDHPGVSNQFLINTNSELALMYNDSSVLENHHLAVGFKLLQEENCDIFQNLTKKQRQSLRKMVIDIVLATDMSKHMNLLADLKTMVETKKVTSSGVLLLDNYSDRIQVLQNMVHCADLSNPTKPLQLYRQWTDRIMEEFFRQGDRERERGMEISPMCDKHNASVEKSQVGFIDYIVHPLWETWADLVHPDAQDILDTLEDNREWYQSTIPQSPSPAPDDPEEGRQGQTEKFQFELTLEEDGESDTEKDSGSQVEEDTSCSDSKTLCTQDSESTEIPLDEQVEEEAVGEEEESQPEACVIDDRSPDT

On to `Cc1ccc(S(=O)(=O)n2c(COCc3ccccc3Nc3cccc(C)c3C)cc3cc(Cl)ccc32)cc1`, for which, in data set [1], the inhibition (usually the percentage by which the read-out fell short of the control) amounted to 26.8%.

Consider `Cc1cccc(Nc2ccccc2COCc2cc3cc(F)ccc3n2S(C)(=O)=O)c1C`, for which, in the data set on CAL-27, the inhibition of growth at 10 µM turned out to be 55.6%. Besides, the inhibition in data set [1] is 68%; on Phosphodiesterase 4, “Dose-dependent effect”. In data set [2], this compound yielded an inhibition at 30 µM of 42%. The values for the IC50 (in [3]; on Phosphodiesterase 4) were 1.34 µM and 5.81 µM, respectively. For the same compound, the Selectivity ratio in the data set filed under Homo sapiens is 4.5. In data set [4], the remaining at 1 h, 5 µM is 64.9%. Also, in data set [5], the half-life (in general, the time in which the quantity being followed falls by half) at 5 µM stood at 1.83 h. Further, in data set [6], the microsomal CLint at 5 µM came to 25.2 µL/min/mg. The compound also showed an inhibition at 10 µM in [7] of 15%.

`Cc1cccc(Nc2ccccc2COCc2cc3ccccc3n2S(C)(=O)=O)c1C`: the inhibition in data set [1] was found to be 61.5%. The compound further came in with an inhibition at 30 µM in [2] of 40.9%. Further, the IC50 (usually the concentration needed to halve the response being measured) in data set [3] is 1.76 µM.

As for `Cc1cccc(Nc2ccccc2C(=O)O)c1C` [MEFENAMIC ACID], the inhibition in data set [1] came out at 38.9%. This compound also came in with an inhibition at 30 µM in [2] of 35.5%.

With `Cc1ccc(S(=O)(=O)n2c(COCc3ccccc3Nc3cccc(C)c3C)cc3ccccc32)cc1`, the inhibition in data set [1] amounted to 39.9%.

As to `Cc1ccc(S(=O)(=O)n2c(COCc3ccccc3Nc3cccc(C)c3C)cc3cc(F)ccc32)cc1`, the inhibition in data set [1] worked out at 34.6%.

In the case of `CCc1ccc2c(c1)cc(COCc1ccccc1Nc1cccc(C)c1C)n2S(=O)(=O)c1ccc(C)cc1`, in data set [1], the inhibition amounted to 32.1%.

Regarding `Cc1ccc(S(=O)(=O)n2c(COCc3ccccc3Nc3cccc(C)c3C)cc3cc(C)ccc32)cc1`, in [1], the inhibition turned out to be 36.2%.

As to `Cc1cc(C)c2c(c1)cc(COCc1ccccc1Nc1cccc(C)c1C)n2S(C)(=O)=O`, the inhibition in [1] worked out at 37.3%.

For `O=C(Nc1c(Cl)cncc1Cl)c1ccc(OC(F)F)c(OCC2CC2)c1` [ROFLUMILAST], the inhibition at 0.01 µM in data set [8] was 88.3%. The inhibition in data set [9] is 91.6%.

On to `Cc1ccc(S(=O)(=O)n2c(COCc3ccccc3Nc3cccc(C)c3C)cc3cc(Br)ccc32)cc1`, for which, in data set [1], the inhibition came to 24.6%.

Consider `Cc1cccc(Nc2ccccc2COCc2cc3cc(Br)ccc3n2S(C)(=O)=O)c1C`, for which, in data set [1], the inhibition was 40.4%.

`Cc1ccc2c(c1)cc(COCc1ccccc1Nc1cccc(C)c1C)n2S(C)(=O)=O`: in data set [1], the inhibition stood at 55.1%. In addition, testing at 30 µM in [2] gave an inhibition of 38.9%. In addition, the IC50 in data set [3] stood at 4.13 µM.

With `Cc1ccc(S(=O)(=O)n2c(COCc3ccccc3Nc3cccc(C)c3C)cc3cc(C)cc(C)c32)cc1`, the inhibition in data set [1] amounted to 23.1%.

In the case of `Cc1cccc(Nc2ccccc2COCc2cc3cc(Cl)ccc3n2S(C)(=O)=O)c1C`, the inhibition in data set [1] was 54.9%. The compound further yielded an inhibition at 30 µM in [2] of 33.6%. Besides, the IC50 in data set [3] is 4.48 µM.
